A word on the EC50: it is the midpoint of the concentration-response curve.

Like-named read-outs stand apart in the source and are kept apart here.

Assay [1] deals with T1, LFA-1 (Homo sapiens, UniProt P20701).
T1 construct: >90% occupancy of LFA-1 with efalizumab led to a greater than 50% clinical improvement in PASI score in a clinical trial; host or cells: leukocytes of psoriasis patients (in vivo)
To be noted: >90% occupancy of LFA-1; cited from earlier work.

For assay [2], the system named is human mononuclear cells (PBMC) stimulated with staphylococcal enterotoxin B (SEB). The experiment in a line: cells. The assay is classed as cell-based.

T1 sequence (P20701 26-1170): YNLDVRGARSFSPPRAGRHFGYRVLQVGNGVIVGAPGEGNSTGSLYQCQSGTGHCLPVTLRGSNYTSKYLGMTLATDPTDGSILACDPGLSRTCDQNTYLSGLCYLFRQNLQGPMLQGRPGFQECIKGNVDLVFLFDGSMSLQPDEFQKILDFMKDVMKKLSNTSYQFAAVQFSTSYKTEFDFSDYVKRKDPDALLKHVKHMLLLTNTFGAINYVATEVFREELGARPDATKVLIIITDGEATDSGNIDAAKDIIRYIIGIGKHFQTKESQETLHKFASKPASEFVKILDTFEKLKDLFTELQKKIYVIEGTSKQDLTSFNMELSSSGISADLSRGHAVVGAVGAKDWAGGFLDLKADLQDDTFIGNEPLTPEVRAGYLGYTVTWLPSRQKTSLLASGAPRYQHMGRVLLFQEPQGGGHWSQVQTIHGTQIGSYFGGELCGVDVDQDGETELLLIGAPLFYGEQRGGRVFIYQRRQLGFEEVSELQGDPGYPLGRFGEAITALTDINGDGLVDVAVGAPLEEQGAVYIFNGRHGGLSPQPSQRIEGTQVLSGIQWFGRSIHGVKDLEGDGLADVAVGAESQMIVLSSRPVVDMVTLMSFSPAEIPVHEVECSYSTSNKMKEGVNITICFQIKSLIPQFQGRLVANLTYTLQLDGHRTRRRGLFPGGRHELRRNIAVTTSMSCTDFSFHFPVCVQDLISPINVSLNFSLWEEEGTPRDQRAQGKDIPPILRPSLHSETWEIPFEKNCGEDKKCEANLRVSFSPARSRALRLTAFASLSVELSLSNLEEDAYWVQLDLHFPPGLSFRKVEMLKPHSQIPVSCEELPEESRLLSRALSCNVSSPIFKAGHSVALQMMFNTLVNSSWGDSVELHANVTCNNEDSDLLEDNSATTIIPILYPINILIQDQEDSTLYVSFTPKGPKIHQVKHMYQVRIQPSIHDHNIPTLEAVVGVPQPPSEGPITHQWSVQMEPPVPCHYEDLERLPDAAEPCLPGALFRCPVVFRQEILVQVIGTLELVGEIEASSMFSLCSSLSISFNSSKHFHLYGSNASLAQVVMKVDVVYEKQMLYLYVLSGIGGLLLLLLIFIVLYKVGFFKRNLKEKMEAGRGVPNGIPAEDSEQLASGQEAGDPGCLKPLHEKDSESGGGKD
T1 sequence (P05107 23-769 partner): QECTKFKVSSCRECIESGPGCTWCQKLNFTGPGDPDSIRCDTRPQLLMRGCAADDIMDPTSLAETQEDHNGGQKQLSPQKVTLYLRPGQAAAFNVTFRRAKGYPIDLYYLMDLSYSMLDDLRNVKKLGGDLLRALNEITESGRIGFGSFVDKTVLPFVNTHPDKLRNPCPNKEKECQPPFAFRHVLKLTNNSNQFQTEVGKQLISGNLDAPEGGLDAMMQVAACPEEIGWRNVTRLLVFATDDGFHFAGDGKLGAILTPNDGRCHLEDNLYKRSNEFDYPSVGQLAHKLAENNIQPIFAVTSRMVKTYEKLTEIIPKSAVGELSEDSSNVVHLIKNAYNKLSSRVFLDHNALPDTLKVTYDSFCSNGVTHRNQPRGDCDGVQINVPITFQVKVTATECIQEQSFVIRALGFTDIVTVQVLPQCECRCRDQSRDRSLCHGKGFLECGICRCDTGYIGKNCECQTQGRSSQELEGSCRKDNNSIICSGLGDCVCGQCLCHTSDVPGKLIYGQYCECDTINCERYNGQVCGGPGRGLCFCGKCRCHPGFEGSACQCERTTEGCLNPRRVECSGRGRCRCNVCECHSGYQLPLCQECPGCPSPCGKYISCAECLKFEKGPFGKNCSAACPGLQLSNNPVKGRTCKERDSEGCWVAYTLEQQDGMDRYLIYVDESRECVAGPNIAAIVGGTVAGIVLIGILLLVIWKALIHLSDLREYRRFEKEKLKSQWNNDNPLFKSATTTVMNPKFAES

Consider “efalizumab: anti-LFA-1 (CD11a) antibody evaluated in plaque psoriasis”, for which, in assay [1], the “clinical improvement in PASI score” value is on record as “greater than 50%”.
With `O=C(NC(Cc1cc(=O)[nH]c2ccccc12)C(=O)O)c1ccc(Cl)cc1` (centres unmarked) [Rebamipide], the EC50 in assay [2] (read-out: EC50 Cytokine Release GM-CSF), in assay [2] (read-out: EC50 Cytokine Release IFNγ), in assay [2] (read-out: EC50 Cytokine Release IL-1α), in assay [2] (read-out: EC50 Cytokine Release IL-1β), in assay [2] (read-out: EC50 Cytokine Release IL-2) and in assay [2] (read-out: EC50 Cytokine Release IL-3) was over 1000 µM in each case. The half-maximal effective concentration (EC50) in assay [2] (read-out: EC50 Cytokine Release IL-4), in assay [2] (read-out: EC50 Cytokine Release IL-5), in assay [2] (read-out: EC50 Cytokine Release IL-6), in assay [2] (read-out: EC50 Cytokine Release IL-10), in assay [2] (read-out: EC50 Cytokine Release IL-12p40) and in assay [2] (read-out: EC50 Cytokine Release IL-13) was over 1000 µM each time. In addition, the concentration for a half-maximal effect (EC50) in assay [2] (read-out: EC50 Cytokine Release IP-10), in assay [2] (read-out: EC50 Cytokine Release MCP-1), in assay [2] (read-out: EC50 Cytokine Release MIP-1α) and in assay [2] (read-out: EC50 Cytokine Release TNF-α) was over 1000 µM in each case.
